Results taken from patent publication US7276481B2, “Method and composition for treatment of skeletal dysplasias” (ProChon Biotech Ltd., priority 2001, dated 2007).
Entries after “also recorded” stand apart in the source; their conditions may differ. Like-named read-outs stand apart in the source and are kept apart here.

Columns and labels:
[1] = 125Iodine-labeled GH in blood after IP administration; format: in vivo, mice; details: 125Iodine-labeled GH IP, one hour after a pulse of unlabelled GH
Text: To determine whether GH can enter the growth plate from the circulation, GH was labeled with ^125Iodine and administered to mice IP, one hour after a pulse of unlabelled GH. Blood samples were collected at several time points and analyzed on a protein gel.

[2] = system: fetal bone organ culture from wild type (normal) animals; details: wild type fetal bones; cited from earlier work
[3] = molecular target: T1, natriuretic peptide receptor on C3H10T1/2 cells (Mus musculus, UniProt Q6VVW5); assay: Biotrak enzyme immunoassay of cGMP elicited on C3H10T1/2 cells; format: cell-based
T1 construct: endogenous in cells; host or cells: C3H10T1/2 cells
T1 sequence (Q6VVW5 23-1047 limits assumed): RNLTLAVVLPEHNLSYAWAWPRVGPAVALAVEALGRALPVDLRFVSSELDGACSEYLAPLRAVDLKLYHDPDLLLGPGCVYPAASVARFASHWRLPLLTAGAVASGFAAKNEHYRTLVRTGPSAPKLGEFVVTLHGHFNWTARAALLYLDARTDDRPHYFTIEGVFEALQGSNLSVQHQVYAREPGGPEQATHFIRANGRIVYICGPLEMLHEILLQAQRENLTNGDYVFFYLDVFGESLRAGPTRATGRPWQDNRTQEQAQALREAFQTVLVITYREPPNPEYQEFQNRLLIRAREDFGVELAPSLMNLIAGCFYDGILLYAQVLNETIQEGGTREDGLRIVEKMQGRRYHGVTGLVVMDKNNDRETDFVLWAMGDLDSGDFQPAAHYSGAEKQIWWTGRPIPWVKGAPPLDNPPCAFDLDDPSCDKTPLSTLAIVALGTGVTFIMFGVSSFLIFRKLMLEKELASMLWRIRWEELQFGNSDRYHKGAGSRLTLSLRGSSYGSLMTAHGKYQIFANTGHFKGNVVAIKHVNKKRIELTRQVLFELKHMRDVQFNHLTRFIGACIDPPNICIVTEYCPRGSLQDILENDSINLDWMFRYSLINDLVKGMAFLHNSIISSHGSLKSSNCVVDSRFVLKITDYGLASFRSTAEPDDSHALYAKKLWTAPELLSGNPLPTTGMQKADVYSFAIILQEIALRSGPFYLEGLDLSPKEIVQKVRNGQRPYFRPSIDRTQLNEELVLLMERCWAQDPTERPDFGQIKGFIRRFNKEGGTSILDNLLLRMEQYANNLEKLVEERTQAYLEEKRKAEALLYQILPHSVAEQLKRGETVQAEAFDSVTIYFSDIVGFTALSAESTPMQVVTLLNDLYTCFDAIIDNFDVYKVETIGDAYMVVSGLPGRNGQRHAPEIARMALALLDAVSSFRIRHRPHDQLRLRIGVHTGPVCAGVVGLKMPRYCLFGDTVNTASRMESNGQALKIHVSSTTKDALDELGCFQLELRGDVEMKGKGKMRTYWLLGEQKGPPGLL
Protocol: All peptide variants were analyzed for activity using the Biotrak enzyme immunoassay (EIA, Amersham) that measures the amount of secondary messenger, cyclic GMP (cGMP), elicited after activation of the natriuretic peptide receptor by the peptide on C3H10T1/2 cells. Amino acid substitutions are marked in bold and underlined. The assay was performed for CNP and variants at a concentration of 10^−6 M. The values are given as the percent of relative binding compared to CNP, where CNP 1-22 and CNP 5-22 yield 100% binding.

[4] = system: femora derived from achondroplasia model mice (Ach369, Ach374) and wild type littermates; assay: Ex vivo femoral bone culture; details: for Growth rate (days 0-3) / Growth rate (days 3-15): CNP treated femora, 40 units=1 mm; for bone elongation / longitudinal growth in bone culture (in words): femora of Ach and wild type mice, versus vehicle or untreated
Protocol: Femora derived from achondroplasia model mice (Ach369 knock-in mice carry the Gly to Cys mutation at position 369, analogous to position 375 in humans or Ach374 knock-in mice that carry the Gly to Arg mutation at position 374, analogous to position 380 in humans) were dissected from P0 wild type, heterozygote and homozygote littermates and cultured in the presence of natriuretic peptides for 15 days.
Protocol for Bone Culture: Femoral bone cultures were performed by excising the hind limbs of mice. The limbs were carefully cleaned from the surrounding tissue (skin and muscles) and the femora exposed. The femora were removed and further cleared from tissue remains and ligaments. The femora were measured for their initial length, using a binocular with an eyepiece micrometer ruler. The bones were grown in 1 ml of medium (α-MEM supplemented with penicillin (100 units/ml), streptomycin (0.1 mg/ml), nystatin (12.5 units/ml), BSA (0.2%), β-glycerophosphate (1 mM) and freshly prepared ascorbic acid (50 μg/ml)) with varying concentrations of NPs or CNP variants in a 24 well tissue culture dish. The bones were cultured for 15 days while measurements of bone length and medium replacement were performed every three days. At the end of the experiment, the growth rate of the bones was determined. The growth rate of bones is calculated from the slope of a linear regression fit on the length measurements obtained from day 3 to 15. Units given can be converted to length, 40 units=1 mm.

Row | cGMP response as percent of CNP ([3]; Table 3, cGMP values at 10^-6 M, compared to CNP (CNP 1-22 and CNP 5-22 = 100%)) | activity in cGMP assay (in words) [3] | cGMP response as percent of CNP ([3]; Table 2, cGMP assay, compared to CNP) | activity in cGMP assay (in words) ([3]; listed as SEQ ID NO: 10) | Substance | labeling of blood samples on a protein gel over time [1] | induction of bone elongation (rank order) [2] | Growth rate (days 0-3) ([4]; +/+ wild type (wt)) | Growth rate (days 3-15) ([4]; +/+ wild type (wt)) | Growth rate (days 0-3) ([4]; Ach/+ heterozygote) | Growth rate (days 3-15) ([4]; Ach/+ heterozygote) | Growth rate (days 0-3) ([4]; Ach/Ach homozygote) | Growth rate (days 3-15) ([4]; Ach/Ach homozygote) | bone elongation / longitudinal growth in bone culture (in words) [4]
1 | – | – | – | – | GH: growth hormone labeled with 125Iodine and administered to mice IP | increases in the first 2-3 hours, can still be observed at 6 hours and almost disappears at 24 hrs | – | – | – | – | – | – | – | –
2 | 100% | – | – | – | C-type natriuretic peptide [CNP] | – | more than BNP and much more than ANP | 0.25 mm/day | 0.143 mm/day | 0.228 mm/day | 0.085 mm/day | 0.177 mm/day | 0.07 mm/day | increased the total longitudinal growth of femora; also recorded: increased in size at a rate higher than that of the untreated limbs
3 | – | increases activity | 138.1% | retains high activity | C F G L K L D R I G S A S G L G C (CFGLKLDRIGSASGLGC; peptide variant) [SEQ ID NO:10] | – | – | – | – | – | – | – | – | induced elongation of Ach369 femora even at a concentration similar to that of CNP
